Measurements: patent publication US20210363152A1, “AMINOAZINE AMIDES” (Hoffmann-La Roche Inc., priority 2018, published 2021)

Molecular target: T1, Autotaxin enzyme (ATX) (Homo sapiens, UniProt Q13822)
T1 construct: purchased Echelon Biosciences, Inc. E-4000
Experiment: In vitro ATX assay (enzymatic ATX inhibition, LPC 14:0 substrate, choline oxidase/HRP absorbance readout)
Format: biochemical
Conditions: 0.3 mM LPC 14:0, 37° C., 4 hours, absorbance 555 nm
Protocol: • Assay buffer: 100 mM Tris-HCl, pH 9.0, 500 mM NaCl, 5 mM MgCl2, 30 μM CoCl2, 0.05% Triton X-100 • Assay buffer II: 4.5 mM 4-AAP, 2.7 mM TOOS, 21.2 U/mL HRP, 3 U/mL CO, In 50 mM Tris-HCl pH 8.0, 4.5 mM MgCl2
A compound preparation plate (Nunc 249944) was prepared by adding 30 mM stock solution (in DMSO) of test compound and performing a serial full-log dilution down to 30 nM. Two μL/well were transferred from the first compound prep plate to a compound dilution plate (Corning, 3641) and 198 μL assay buffer I was added for a […].
A 10 ng/mL solution of ATX was prepared by diluting in assay buffer I, and 80 μL/well were added to the assay plate (Corning, 3641); negative control wells contained 80 μL/well assay buffer I only (no ATX). Ten μL/well from the compound dilution plate (containing serially diluted test compound or DMSO) were added to the assay plate, which was then incubated at 37° C. for 15 minutes. A solution of LPC 14:0 was prepared in assay buffer I at 3 mM and 10 μl/well were added to the assay plate, for a final concentration of 0.3 mM LPC, and returned to 37° C. incubator for 4 hours. After 4 hour incubation, 100 μL/well of assay buffer II was added to all wells of the assay plate. The plate was incubated at RT for 15 minutes, prior to reading on FlexStation in absorbance mode, 555 nm. Results in the enzymatic ATX inhibition assay are provided for compounds of formula (I). An IC50 value of “A” is less than 100 nM, “B” is equal to or greater than 100 nM but less than 1 μM, “C” is equal to or greater than 1 μM.

| SMILES | IC50 [nM] |
| --- | --- |
| O=C(c1cnc(NCc2cc(OC(F)(F)F)cc(C3CC3)c2)nc1)N1CCC12CN(C1COC1)C2 [Example 145, (2-((3-Cyclopropyl-5-(trifluoromethoxy)benzyl)amino)pyrimidin-5-yl) (6-(oxetan-3-yl)-1,6-diazaspiro[3.3]heptan-1-yl)methanone] | < 100 |
| O=C(c1cnc(NCc2cc(OC(F)(F)F)cc(C3CC3)c2)nc1)N1CC(F)(F)C1 [Example 86, (2-((3-cyclopropyl-5-(trifluoromethoxy)benzyl)ami-no)pyrimidin-5-yl)(3,3-difluroazetidin-1-yl)-methanone] | 100 to 1000 |
| O=C(c1cnc(NCc2cccc(C(F)F)c2)nc1)N1CCC12COC2 [Example 18] | ≥ 1000 |
| NC(=O)c1cc(CNc2ncc(C(=O)N3CCC34COC4)cn2)cc(OC(F)(F)F)c1 [Example 140, 3-(((5-(6-Oxa-1-azaspiro[3.3]heptane-1-carbonyl)pyrimidin-2-yl)amino)methyl)-5-(trifluoromethoxy)benzamide] | ≥ 1000 |
| O=C(c1cnc(NCc2cc(OC(F)(F)F)cc(C3CC3)c2)nc1)N1CCC12CN(C1CC1)C2 [Example 146, (2-((3-Cyclopropyl-5-(trifluoromethoxy)benzyl)amino)pyrimidin-5-yl) (6-cyclopropyl-1,6-diazaspiro[3.3]heptan-1-yl)methanone] | < 100 |
| CC(C)Oc1cc(CNc2ncc(C(=O)N3CCC34COC4)cn2)cc(OC(C)C)c1 [Example 52] | < 100 |
| CC1CCN1C(=O)c1cnc(NCc2cc(Cl)cc(Cl)c2)nc1 (stereo not drawn) [Example 10] | 100 to 1000 |
| O=C(c1cnc(NCc2cc(Br)cc(OC(F)(F)F)c2)nc1)N1CCC12COC2 [Example 25] | < 100 |
| CC(C)c1cc(CNc2ncc(C(=O)N3CCC34COC4)cn2)cc(OC(F)(F)F)c1 [Example 1, (2-((3-Isopropyl-5-(trifluoromethoxy)benzyl)amino)pyrimidin-5-yl) (6-oxa-1-azaspiro[3.3]heptan-1-yl)methanone] | < 100 |
| O=C(c1cnc(N[C@H]2Cc3ccc(Br)cc3C2)nc1)N1CCC12COC2 [Example 61] | 100 to 1000 |
| O=C(c1cnc(NCc2cc(OC(F)(F)F)cc(C3CC3)c2)nc1)N1CCc2cnccc21 [Example 91, (2-((3-cyclopropyl-5-(trifluoromethoxy)benzyl)ami-no)pyrimidin-5-yl)(2,3-dihydro-1H-pyrrolo[3,2-c]pyridin-1-yl)methanone] | 100 to 1000 |
| N#Cc1cccc(CNc2ncc(C(=O)N3CCC34COC4)cn2)c1 [Example 14] | ≥ 1000 |
| CC(Nc1ncc(C(=O)N2CCC23COC3)cn1)c1cccc(OC(F)(F)F)c1 (stereo not drawn) [Example 13] | ≥ 1000 |
| O=C(c1cnc(NCc2cc(OC(F)(F)F)cc(C3CC3)c2)nc1)N1CCC12COC2 [Example 80, (2-((3-cyclopropyl-5-(trifluoromethoxy)benzyl)ami-no)pyrimidin-5-yl)(6-oxa-1-azaspiro[3.3]heptan-1-yl)-methanone] | < 100 |
| O=C(c1cnc(NCc2cc(OC(F)(F)F)cc(C3CC3)c2)nc1)N1CCCC12COC2 [Example 96, (2-((3-cyclopropyl-5-(trifluoromethoxy)benzyl)ami-no)pyrimidin-5-yl)(2-oxa-5-azaspiro[3.4]octan-5-yl)methanone] | < 100 |
| COCC1CN(C(=O)c2cnc(NCc3cc(OC(F)(F)F)cc(C4CC4)c3)nc2)C1 [Example 99, (2-((3-cyclopropyl-5-(trifluoromethoxy)benzyl)ami-no)pyrimidin-5-yl)(3-(methoxymethyl)azetidin-1-yl)methanone] | 100 to 1000 |
| O=C(c1cnc(NC2Cc3ccc(Cl)cc3C2)nc1)N1CCCC12COC2 (stereo not drawn) [Example 46] | < 100 |
| CC(=O)N1CC2(CCN2C(=O)c2cnc(NCc3cc(OC(F)(F)F)cc(C4CC4)c3)nc2)C1 [Example 153, 1-(1-(2-((3-Cyclopropyl-5-(trifluoromethoxy)benzyl)amino)pyrimidine-5-carbonyl)-1,6-diazaspiro[3.3]heptan-6-yl)ethanone] | < 100 |
